Test [1] concerns the target T1, FAK (Homo sapiens, UniProt Q05397).
T1 construct: specific displacement of FAK from the focal adhesions of the tumor cells; endogenous in cells; host or cells: tumor cells; BT474 named for the focal adhesion staining
As to the kind of experiment: FAK dephosphorylation in cells. Type of test: cell-based. As for the experimental part: (§1) Measurement of FAK-specific effect. The readout of a FAK-specific effect of selected in silico small molecules is specific displacement of FAK from the focal adhesions of the tumor cells. Tumor cells are doubly stained with FAK and paxillin using dual color techniques and extensive biochemical analyses of effects on FAK signaling are performed, essentially as previously published. See, Garces, C. A., et al., Vascular Endothelial Growth Factor Receptor-3 and Focal Adhesion Kinase Bind and Suppress Apoptosis in Breast Cancer Cells. Cancer Res % R 10.1158/0008-5472.CAN-05-1661, 2006. 66(3): p. 1446-1454; Xu, L.-h., et al., The focal adhesion kinase suppresses transformation-associated, anchorage-Independent apoptosis in human breast cancer cells. J. Biol. Chem., 2000. 275: p. 30597-30604; Kurenova, E., et al., Focal Adhesion Kinase Suppresses Apoptosis by Binding to the Death Domain of Receptor-Interacting Protein. Mol. Cell. Biol., 2004. 24(10): p. 4361-4371.

The target in test [2] is T2, FAK and VEGFR-3 interaction (Homo sapiens, UniProt Q05397).
T2 construct: endogenous in cells; BT474 for the FAK/VEGFR-3 staining
Kind of test: FAK and VEGFR-3 interaction and colocalization (immunofluorescence confocal microscopy, FRET). The settings on record: for colocalization of FAK and VEGFR-3 in the cells: confocal microscopy. It counts as cell-based. As for the experimental part: (§2) Furthermore, these compounds sensitized the cancer cells to chemotherapy. […] See, FIGS. 3-14.
(§3) FIG. 1.3. […] FAK and VEGFR-3 in BT474 cells were stained for FAK with a Texas Red-conjugated secondary antibody and VEGFR-3 with a Alexa Fluor 488-conjugated secondary antibody and then viewed with a Leica confocal microscope. After 24 hours of peptide-AV3 (black) treatment, staining was repeated, proliferation was measured by MTT assay, apoptosis was measured by Hoechst staining and TUNEL Assay. Control scrambled peptide-AV3S (white) was also used in all experiments. (FIG. 1.10, STEP 2A).

The target of test [3] is T3, FAK in focal adhesions of BT474 cells (Homo sapiens, UniProt Q05397).
T3 construct: specific displacement of FAK from the focal adhesions of the tumor cells; endogenous in cells; host or cells: tumor cells; BT474 named for the focal adhesion staining
As to the kind of experiment: Displacement of FAK from focal adhesions (dual colour staining, confocal microscopy). Type of test: cell-based. The settings on record: 24 hours of peptide treatment. As for the experimental part:
as §1
FIG. 1.3. […] FAK and VEGFR-3 in BT474 cells were stained for FAK with a Texas Red-conjugated secondary antibody and VEGFR-3 with a Alexa Fluor 488-conjugated secondary antibody and then viewed with a Leica confocal microscope. After 24 hours of peptide-AV3 (black) treatment, staining was repeated, proliferation was measured by MTT assay, apoptosis was measured by Hoechst staining and TUNEL Assay. […]

Test [4] has as its system breast cancer cell lines. As to the kind of experiment: Peptide effect on proliferation (MTT), detachment and apoptosis (Hoechst, TUNEL) in breast cancer cell lines. The following applies: 24 hours. Type of test: cell-based, human. As for the experimental part:
as §3

Test [5] has as its system PARP. As to the kind of experiment: PARP down-regulation. It counts as cell-based. An excerpt: As such, these compounds are useful as therapeutic agents.
Test [6] deals with T4, VEGFR-3 (Homo sapiens, UniProt P35916).
T4 construct: expressed in transfected cells
As to the kind of experiment: VEGFR-3 dephosphorylation in cells. Type of test: cell-based.

The subject of test [7] is cancer cells, including breast, colon, pancreatic, melanoma, lung, osteosarcoma. Kind of test: Cancer cell viability and proliferation assays (CellTiter 96, CellTiter-Blue, MTT). Type of test: cell-based, human. As for the experimental part: Cell-based assays. Selected small molecules are evaluated in cell-based proliferation and apoptosis assays in model system of BT474 and MCF7 breast cancer cells and normal MCF10 cells. Other cells lines relevant for study are MiaPaCa-2 and PANC-1 (pancreatic cancer), A375 (melanoma), A549 (lung cancer), HT29 and COLO5 (colon cancer), SAOS (osteosarcoma), HCT116 p53(−/−) and HCT116 p53(+/+) (colon cancer) and C8186 (melanoma). The multiplex approach to analyze more than one parameter from the same culture well is used.
CellTiter 96 Aqueous One Solution Cell Proliferation Assay (Promega). The assay is performed by adding a small amount of the One Solution Reagent directly to culture wells, incubating for 1-4 hours and then recording absorbance at 490 nm with a spectrophotometric plate reader. The quantity of formazan product as measured by the amount of 490 nm absorbance is directly proportional to the number of living cells in culture;
The CellTiter-Blue Cell Viability Assay (Promega). CellTiter-Blue Reagent is added directly to each well (20μ reagent to each 100μ of medium in 96-well format), the plates are incubated at 37° C., and the fluorescent signal is measured (560Ex/590Em). This test can be combined with additional assays. The caspase activity is measured in the same wells by adding 120μ of the Apo-ONE Homogeneous Caspace-3/7 Assay Reagent (Promega). […]
In general terms: Alamar Blue is a resazurin reagent that responds to reducing activity.

Test [8] relates to cancer cells. As to the kind of experiment: Cell cycle and apoptosis of cancer cells. Type of test: cell-based, human. As for the experimental part: Cell-based assays. Selected small molecules are evaluated in cell-based proliferation and apoptosis assays in model system of BT474 and MCF7 breast cancer cells and normal MCF10 cells. Other cells lines relevant for study are MiaPaCa-2 and PANC-1 (pancreatic cancer), A375 (melanoma), A549 (lung cancer), HT29 and COLO5 (colon cancer), SAOS (osteosarcoma), HCT116 p53(-/-) and HCT116 p53(+/+) (colon cancer) and […] (melanoma). The multiplex approach to analyze more than one parameter from the same culture well is used. The CellTiter-Blue Cell Viability Assay (Promega). CellTiter-Blue Reagent is added directly to each well (20μ reagent to each 100μ of medium in 96-well format), the plates are incubated at 37° C., and the fluorescent signal is measured (560Ex/590Em). This test can be combined with additional assays. The caspase activity is measured in the same wells by adding 120μ of the Apo-ONE Homogeneous […]-3/7 Assay Reagent (Promega). Cells are incubated for an additional hour at ambient temperature prior to recording fluorescence (485Ex/527Em);

Test [9] deals with cancer cells. As to the kind of experiment: Motility and invasiveness of cancer cells. Type of test: cell-based.
In test [10] the test system is MCF7 cells overexpressing wt VEGFR3. Kind of test: Viability of stable clone overexpressing wt VEGFR3 in MCF7 cells. It counts as cell-based, human. The settings on record: 1 mM.
Test [11] has as its system MCF7 control clone transfected with the vector pcDNA3. Kind of test: Viability of control MCF7 clone transfected with vector pcDNA3. Type of test: cell-based, human. The following applies: 1 mM.
The test system of test [12] is cancer cells. Kind of test: Dual treatment of cancer cells with C4 and chemotherapeutic drugs. Type of test: cell-based, human. The text has this:
FIG. 1.9. Dual treatment of cancer cells with C4 compound and chemotherapeutic drugs. […] Concentrations correspond to IC50 cell-specific concentration for all used drugs.

Test [13] concerns subcutaneous xenograft models of breast and pancreatic cancers. As to the kind of experiment: Subcutaneous xenograft models in nude mice, tumor growth. Type of test: in vivo. The settings on record: for anticancer effect on tumor growth in vivo: single agent, mouse xenograft.
Source text: as §2

Entries after “also recorded” stand apart in the source; their conditions may differ. Ends that are not written are not given here.

T2 sequence (Q05397 2-1052 limits assumed): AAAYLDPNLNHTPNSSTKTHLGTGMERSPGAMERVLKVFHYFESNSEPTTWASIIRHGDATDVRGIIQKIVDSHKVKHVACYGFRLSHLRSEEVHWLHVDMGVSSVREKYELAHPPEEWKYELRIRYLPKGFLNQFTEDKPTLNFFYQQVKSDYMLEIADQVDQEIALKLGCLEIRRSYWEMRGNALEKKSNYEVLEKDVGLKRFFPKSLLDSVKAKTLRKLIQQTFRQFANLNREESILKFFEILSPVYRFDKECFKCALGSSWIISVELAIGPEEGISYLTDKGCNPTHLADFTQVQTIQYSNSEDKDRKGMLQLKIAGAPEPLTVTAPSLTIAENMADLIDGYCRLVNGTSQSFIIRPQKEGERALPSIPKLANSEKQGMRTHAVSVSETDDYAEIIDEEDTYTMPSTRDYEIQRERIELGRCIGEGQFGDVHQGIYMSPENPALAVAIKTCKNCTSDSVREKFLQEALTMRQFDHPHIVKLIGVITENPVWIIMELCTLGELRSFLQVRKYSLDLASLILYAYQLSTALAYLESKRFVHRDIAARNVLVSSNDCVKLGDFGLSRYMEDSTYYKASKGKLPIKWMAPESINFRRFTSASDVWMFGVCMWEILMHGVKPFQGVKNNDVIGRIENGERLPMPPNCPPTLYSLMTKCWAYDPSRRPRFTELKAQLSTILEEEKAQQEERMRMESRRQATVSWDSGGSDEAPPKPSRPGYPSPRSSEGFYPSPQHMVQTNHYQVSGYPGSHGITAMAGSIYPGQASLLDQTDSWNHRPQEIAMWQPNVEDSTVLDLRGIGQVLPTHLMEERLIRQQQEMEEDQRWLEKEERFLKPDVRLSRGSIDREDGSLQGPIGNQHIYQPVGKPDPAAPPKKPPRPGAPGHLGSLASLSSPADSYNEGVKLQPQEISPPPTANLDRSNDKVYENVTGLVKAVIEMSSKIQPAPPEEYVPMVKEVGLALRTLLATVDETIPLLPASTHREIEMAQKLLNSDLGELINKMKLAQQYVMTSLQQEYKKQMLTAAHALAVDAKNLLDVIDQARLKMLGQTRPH
T1 sequence (Q05397 whole entry): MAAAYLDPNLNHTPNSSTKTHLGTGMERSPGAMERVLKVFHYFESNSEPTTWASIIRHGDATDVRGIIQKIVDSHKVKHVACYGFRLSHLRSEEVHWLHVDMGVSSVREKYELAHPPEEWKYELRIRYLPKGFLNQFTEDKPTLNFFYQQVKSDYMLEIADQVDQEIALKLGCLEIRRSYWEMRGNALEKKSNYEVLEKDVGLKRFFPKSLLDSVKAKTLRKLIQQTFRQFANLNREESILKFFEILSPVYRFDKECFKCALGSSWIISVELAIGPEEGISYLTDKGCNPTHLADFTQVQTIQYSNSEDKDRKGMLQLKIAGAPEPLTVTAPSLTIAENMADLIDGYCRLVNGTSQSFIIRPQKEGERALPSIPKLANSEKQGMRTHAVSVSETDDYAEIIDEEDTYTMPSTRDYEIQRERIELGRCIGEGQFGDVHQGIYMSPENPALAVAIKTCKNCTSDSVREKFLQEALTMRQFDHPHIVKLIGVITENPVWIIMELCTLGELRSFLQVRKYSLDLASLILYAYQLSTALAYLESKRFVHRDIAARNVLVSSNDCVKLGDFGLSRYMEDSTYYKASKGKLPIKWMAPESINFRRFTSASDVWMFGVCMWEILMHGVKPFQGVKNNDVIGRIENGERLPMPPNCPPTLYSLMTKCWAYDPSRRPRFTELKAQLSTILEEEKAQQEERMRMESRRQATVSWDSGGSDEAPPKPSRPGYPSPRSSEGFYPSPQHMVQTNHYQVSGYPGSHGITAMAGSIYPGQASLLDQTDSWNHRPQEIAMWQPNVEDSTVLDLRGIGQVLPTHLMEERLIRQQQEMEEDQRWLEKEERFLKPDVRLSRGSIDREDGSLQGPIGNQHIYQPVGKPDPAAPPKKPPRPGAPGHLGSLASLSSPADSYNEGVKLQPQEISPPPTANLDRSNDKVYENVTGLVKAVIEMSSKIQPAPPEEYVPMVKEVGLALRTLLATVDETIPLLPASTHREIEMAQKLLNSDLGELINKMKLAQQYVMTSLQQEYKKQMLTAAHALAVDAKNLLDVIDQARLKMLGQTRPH
T3 sequence (Q05397 whole entry): as above
T4 sequence (P35916 25-1363): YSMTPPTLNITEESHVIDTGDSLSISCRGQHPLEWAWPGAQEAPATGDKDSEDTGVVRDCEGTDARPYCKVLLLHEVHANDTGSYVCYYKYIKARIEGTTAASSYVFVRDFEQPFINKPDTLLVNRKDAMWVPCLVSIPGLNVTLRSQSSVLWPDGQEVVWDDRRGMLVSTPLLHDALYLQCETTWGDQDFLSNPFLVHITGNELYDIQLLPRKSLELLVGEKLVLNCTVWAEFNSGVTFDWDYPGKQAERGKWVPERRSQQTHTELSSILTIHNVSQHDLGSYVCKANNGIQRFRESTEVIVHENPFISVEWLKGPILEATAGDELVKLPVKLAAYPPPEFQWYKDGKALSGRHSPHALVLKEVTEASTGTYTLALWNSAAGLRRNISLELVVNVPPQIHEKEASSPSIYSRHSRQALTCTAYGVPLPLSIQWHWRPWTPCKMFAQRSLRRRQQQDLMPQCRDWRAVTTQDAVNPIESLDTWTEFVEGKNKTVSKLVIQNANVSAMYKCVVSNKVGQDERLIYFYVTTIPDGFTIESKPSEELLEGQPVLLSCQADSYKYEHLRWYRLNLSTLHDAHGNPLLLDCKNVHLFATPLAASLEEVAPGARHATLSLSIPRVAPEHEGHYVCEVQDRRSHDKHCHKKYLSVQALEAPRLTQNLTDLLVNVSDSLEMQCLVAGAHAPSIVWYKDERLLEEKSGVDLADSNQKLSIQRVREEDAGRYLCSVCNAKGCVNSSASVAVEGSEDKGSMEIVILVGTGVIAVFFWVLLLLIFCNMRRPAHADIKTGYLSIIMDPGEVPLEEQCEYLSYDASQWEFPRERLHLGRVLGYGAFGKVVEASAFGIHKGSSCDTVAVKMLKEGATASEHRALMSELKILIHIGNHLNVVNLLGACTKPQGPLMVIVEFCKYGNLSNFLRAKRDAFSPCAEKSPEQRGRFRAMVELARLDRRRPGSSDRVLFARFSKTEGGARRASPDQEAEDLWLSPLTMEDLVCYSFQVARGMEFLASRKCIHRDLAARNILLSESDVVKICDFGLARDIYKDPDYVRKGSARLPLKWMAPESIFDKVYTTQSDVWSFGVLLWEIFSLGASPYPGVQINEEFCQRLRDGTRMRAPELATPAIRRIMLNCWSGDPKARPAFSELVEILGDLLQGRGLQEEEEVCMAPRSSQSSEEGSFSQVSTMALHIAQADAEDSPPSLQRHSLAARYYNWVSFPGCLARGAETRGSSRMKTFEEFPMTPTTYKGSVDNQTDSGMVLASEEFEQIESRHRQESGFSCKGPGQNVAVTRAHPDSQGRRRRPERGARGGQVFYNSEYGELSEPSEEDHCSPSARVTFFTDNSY

In the case of `Cc1cc(C)nc(Nc2nc3cc([N+](=O)[O-])ccc3[nH]2)n1` [Compound D5, (4,6-Dimethyl-pyrimidin-2-yl)-(5-nitro-1H-benzoimidazol-2-yl)-amine], the “phosphorylation of Y397” value in test [1] is “cause de-phosphorylation of Y397”.
Consider “WHWRPWTPCKMF (also: TAT penetration sequence coupled for cell tests) [peptide-AV3]”, for which, in [2], the “colocalization of FAK and VEGFR-3 in the cells” value was “affected co-localization of FAK and VEGFR-3; also recorded: affected colocalization of FAK and VEGFR-3”. Further, the entries for the “displacement of FAK from the focal adhesions” value in test [3] and in [3] (listed as Peptide-AV3) were “caused specific displacement of FAK from the focal adhesions” and “causes specific displacement of FAK from the focal adhesions”, respectively. Further, the “cell detachment in breast cancer cell lines” value is listed as “caused cell detachment” in [4] and “increased detachment” in test [4] (listed as Peptide-AV3). The “apoptosis in breast cancer cell lines” value in test [4] (Hoechst staining and TUNEL) is listed as “apoptosis”. Further, the “proliferation of breast cancer cell lines” value in [4] (MTT) is listed as “decreased proliferation”.
As to `COC(=O)Nc1nc2ccc(C(=O)C3CC3)cc2[nH]1` [Compound D4, methyl N-[5-(cyclopropanecarbonyl)-3H-benzoimidazol-2-yl]carbamate], the “phosphorylation of Y397” value in test [1] was “cause de-phosphorylation of Y397”. The PARP level result in test [5] is “causes PARP down-regulation”.
`COc1ccc(NC(=O)Nc2cc(Cl)ccc2OC)c(Cl)c1` [Compound D6, 1-(2-chloro-4-methoxy-phenyl)-3-(5-chloro-2-methoxy-phenyl) urea]: the “phosphorylation of Y397” value in test [1] was “cause de-phosphorylation of Y397”.
For `CN(C)CCN(Cc1ccc(Cl)cc1)c1ccccn1` [Compound C4, N′-[(4-chlorophenyl)methyl]-N,N-dimethyl-N′-pyridin-2-yl-ethane-1,2-diamine], the FAK phosphorylation entry in test [1] is “specifically dephosphorylates FAK and VEGFR-3”. Moreover, the VEGFR-3 phosphorylation entry in test [6] was “specifically dephosphorylates FAK and VEGFR-3”. In addition, the “dephosphorylation of VEGFR3” value in test [6] (treatment for 24 h with 10 mM compound) is reported as “caused dephosphorylation of VEGFR3”. Further, in test [2], the “FAK and VEGFR-3 interaction” value is recorded as “disrupts their interaction”; the “colocalization of FAK and VEGFR-3 in the cells” value was “decrease in their colocalization in the cells”. Further, the cell proliferation entry in test [7] is “delay in cell proliferation”. In addition, in test [7] (in vitro), the “viability of cancer cells” value is given as “decreases viability of many different types of cancer cells”. Also, in [8], the cell cycle result is “blockage at G1/S cell cycle transition”. Also, the “apoptosis of cancer cells” value in test [8] (in vitro) was “apoptosis of cancer cells; also recorded: causes apoptosis in pancreatic and breast cancer cells in vitro”. For the same compound, the “motility and invasiveness of cancer cells” value in test [9] was “reduces motility and invasiveness of cancer cells”. The “viability of VEGFR3 clone” value in test [10] is “reproducible decrease in viability”. Further, the “viability of control clone” value in test [11] is on record as “resistant to this concentration of the drug”. Moreover, the “effect of dual treatment with doxorubicin” value in test [12] (C4 combined with doxorubicin, IC50 cell-specific concentrations) is given as “At least additive effect is very pronounced”. Besides, the “cell viability in combination with chemotherapy (sensitization)” value in [12] (in combination with Doxorubicin and Gemcitabine, in vitro) was “improved effect on decrease of cells viability; also recorded: sensitizes pancreatic cancer and breast cancer cells to chemotherapy treatment in vitro”. Also, the “reduction of tumor growth in comparison with nontreated tumors” value in test [13] (60 mg/kg, daily intraperitoneal injections, nude mice) was “up to 75%”. The “tumor growth after treatment withdrawal” value in [13] (C4 combined with Gemcitabine, pancreatic tumor) was “prolonged cytostatic effect on pancreatic tumor growth after treatment withdrawal”. Also, in test [13] (C4 combined with Gemcitabine, versus each drug separately), the “anticancer effect in combination with Gemcitabine” value was “much stronger anticancer effect than each of the drugs separately”. Also, the “tumor growth compared with doxorubicin” value in test [13] (breast cancer) was “decreases tumor growth better than doxorubicin”. In test [13], the “anticancer effect on tumor growth in vivo” value was “strong anticancer effect; also recorded: reduces tumor growth in vivo in mouse model of breast cancer and pancreatic cancer”.
On to `CN(C)CCOC(c1ccccc1)c1ccccc1` [Benadryl, reference compound], for which the “anticancer effect on tumor growth in vivo” value in [13] is listed as “no any anticancer properties”.

(Values after US8404669B2, “Kinase modulating compounds and uses thereof for treatment of cancer” (University of Florida Research Foundation, Inc., priority 2007, dated 2013).)
